Columns and labels:
[1] = target: T1, Glucocorticoid receptor (GR) (Homo sapiens, UniProt P04150); assay: Glucocorticoid receptor transactivation, MMTV-bla HeLa CELLSENSOR β-lactamase reporter, agonist mode; assay type: cell-based; settings: for % Activation at 100 nM: GR, 5 hours; for greater potency compared to the parent molecule cortisol: GR signaling pathway, relative to cortisol
T1 construct: host or cells: MMTV-bla HeLa CELLSENSOR
T1 sequence (P04150 1-777): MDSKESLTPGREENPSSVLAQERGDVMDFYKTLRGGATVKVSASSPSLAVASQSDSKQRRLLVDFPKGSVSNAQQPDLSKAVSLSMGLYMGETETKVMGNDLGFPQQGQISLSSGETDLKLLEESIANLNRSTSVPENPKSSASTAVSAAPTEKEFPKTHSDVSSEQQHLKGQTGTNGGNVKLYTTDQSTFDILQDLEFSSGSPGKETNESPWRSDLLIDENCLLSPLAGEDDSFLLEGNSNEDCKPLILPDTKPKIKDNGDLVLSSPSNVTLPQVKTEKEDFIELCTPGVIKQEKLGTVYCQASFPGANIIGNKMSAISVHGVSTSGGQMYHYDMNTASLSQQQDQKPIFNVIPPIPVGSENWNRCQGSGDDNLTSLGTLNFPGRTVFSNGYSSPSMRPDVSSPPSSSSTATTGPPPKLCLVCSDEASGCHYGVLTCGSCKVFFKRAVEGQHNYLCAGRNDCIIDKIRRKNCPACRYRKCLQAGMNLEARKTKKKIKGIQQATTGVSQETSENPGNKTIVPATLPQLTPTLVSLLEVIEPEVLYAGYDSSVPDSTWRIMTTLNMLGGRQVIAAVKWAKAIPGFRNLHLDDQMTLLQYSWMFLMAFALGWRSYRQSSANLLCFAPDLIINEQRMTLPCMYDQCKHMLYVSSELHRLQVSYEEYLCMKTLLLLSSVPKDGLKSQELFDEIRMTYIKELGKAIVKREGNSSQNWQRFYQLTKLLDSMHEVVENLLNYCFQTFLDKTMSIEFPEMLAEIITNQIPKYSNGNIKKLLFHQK
Description: Glucocorticoid receptor (GR) activation potency was assessed using a HeLa cell line containing the MMTV-bla reporter (MMTV-bla HeLa CELLSENSOR®, Invitrogen Corp., Carlsbad, Calif.). This cell line was stably transfected with an expression construct containing β-lactamase cDNA under control of the MMTV response element previously identified as a glucocorticoid receptor response element. […] All assays were performed as 10-point dose responses using a half log-fold dilution series starting with a maximum compound concentration of 100 nM. The compounds were incubated for 5 hours. The activation of endogenous GR leads to expression of the reporter β-lactamase which is detected by the conversion of a FRET substrate in a ratiometric assay format. This functional assay allows for measurement of receptor agonism by compounds and can be used to determine compound potency and selectivity. Assay reproducibility was determined by calculating Z′ values for untreated versus maximum stimulation.

[2] = patients, applied locally via eye drops, compared to dexamethasone, prednisolone and fluorometholone; cited from earlier work
[3] = target: T2, fusion protein GAL4(DBD)-MR(LBD) (Homo sapiens, UniProt P08235); assay: Mineralocorticoid receptor transactivation, UAS-bla HEK 293T CELLSENSOR β-lactamase reporter, agonist mode; assay type: cell-based; settings: for % Activation at 100 nM: MR, UAS-bla HEK 293T, agonist mode, 16 hours
T2 sequence (P08235 726-964 limits assumed): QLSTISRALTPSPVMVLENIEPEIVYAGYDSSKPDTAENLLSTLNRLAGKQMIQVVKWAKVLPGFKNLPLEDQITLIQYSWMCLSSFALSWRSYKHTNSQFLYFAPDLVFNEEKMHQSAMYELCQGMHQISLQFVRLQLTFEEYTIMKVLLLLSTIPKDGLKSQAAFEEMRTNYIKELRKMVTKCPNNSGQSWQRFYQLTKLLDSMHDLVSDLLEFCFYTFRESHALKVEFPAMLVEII
Description: Mineralocorticoid receptor (MR) activation potency was assessed using a HEK 293T cell line containing the UAS-bla reporter (UAS-bla HEK 293T CELLSENSOR®). This cell line was stably cotransfected with an expression construct containing β-m lactamase cDNA under control of the GAL4 Upstream Activator Sequence (UAS) and another expression construct encoding for the fusion protein GAL4(DBD)-MR(LBD). […] All assays were performed as 10-point dose responses using a half log-fold dilution series starting with a maximum compound concentration of 100 nM. The compounds were incubated for 16 hours. The activation of the fusion protein GAL4(DBD)-MR(LBD) leads to expression of the reporter β-lactamase which is detected by the conversion of a FRET substrate in a ratiometric assay format. This functional assay allows for measurement of receptor agonism by compounds and can be used to determine compound potency and selectivity. Assay reproducibility was determined by calculating Z′ values for untreated versus maximum stimulation.

C[C@]12CCC(=O)C=C1CC[C@@H]1[C@@H]2[C@@H](O)C[C@@]2(C)[C@H]1CC[C@]2(O)C(=O)CO
% Activation at 100 nM ([1]; MMTV-bla HeLa, agonist mode): 43%

C[C@]12CCC(=O)C=C1CC[C@@H]1[C@@H]2[C@@H](O)C[C@@]2(C)[C@H]1CC[C@]2(OC(=O)c1ccccc1)C(=O)CO [cortisol 17-benzoate]
greater potency compared to the parent molecule cortisol [1]: about 30 fold

C[C@]12CCC(=O)C=C1CC[C@@H]1[C@@H]2[C@@H](O)C[C@@]2(C)[C@H]1CC[C@]2(OC(=O)C1CCCC1)C(=O)CO [cortisol 17-cyclopentanoate]
greater potency compared to the parent molecule cortisol [1]: about 30 fold

C[C@]12CCC(=O)C=C1CC[C@@H]1[C@@H]2[C@@H](O)C[C@@]2(C)[C@H]1CC[C@]2(O)C(=O)CO [cortisol]
effect on intraocular pressure [2]: minimal effect on intraocular pressure

C[C@]12CCC(=O)C=C1CC[C@@H]1[C@@H]2[C@@H](O)C[C@@]2(C)[C@H]1CC[C@]2(OC(=O)CCS(=O)(=O)c1ccccc1)C(=O)CO [drawing 14]
% Activation at 100 nM ([1]; MMTV-bla HeLa, agonist mode): 17% | EC50 ([1]; MMTV-bla HeLa, agonist mode, 5 hours incubation, max concentration 100 nM, one experiment in duplicate): > 100 nM

C[C@]12CCC(=O)C=C1CC[C@@H]1[C@@H]2[C@@H](O)C[C@@]2(C)[C@H]1CC[C@]2(OC(=O)Cc1ccc(Br)cc1)C(=O)CO [drawing 15]
% Activation at 100 nM ([1]; MMTV-bla HeLa, agonist mode): 0%

C[C@]12CCC(=O)C=C1CC[C@@H]1[C@@H]2[C@@H](O)C[C@@]2(C)[C@H]1CC[C@]2(OC(=O)CCS(=O)(=O)c1ccccc1)C(=O)CO [drawing 18]
EC50 [3]: 3.48 nM | % Activation at 100 nM [3]: 79%

C[C@]12CCC(=O)C=C1CC[C@@H]1[C@@H]2[C@@H](O)C[C@@]2(C)[C@H]1CC[C@]2(OC(=O)Cc1ccc(Br)cc1)C(=O)CO [drawing 19]
EC50 [3]: 5.53 nM | % Activation at 100 nM [3]: 77%
